Measurements: ChEMBL document CHEMBL1201862, “PubChem BioAssay data set” (2004)
Activity calls are given as the source filed them.

Experiments:
[1] = Luminescence Cell-Based Dose Response to Identify Activators of Luciferase Translation or Activity in H4-C Neuroglioblastoma Cells. [Related pubchem assays: 1829 (Project Summary), 1814 (Primary HTS)]; assay type: functional
[2] = Luminescence Cell-Based Dose Response to Identify Activators of 5'UTR Stem-Loop Driven Prion Protein mRNA Translation in H4-C Neuroglioblastoma Cells. [Related pubchem assays: 1829 (Project Summary), 1814 (Primary HTS)]; assay type: functional
[3] = Luminescence Cell-Based Dose Confirmation HTS to Identify Activators of 5'UTR Stem-Loop Driven Alpha-Synuclein mRNA Translation in H4 Neuroglioblastoma Cells. [Related pubchem assays: 1829 (Project Summary), 1814 (Primary HTS)]; assay type: functional
H4 = assay: Luminescence Cell-Based Dose Response HTS to Identify Activators of 5'UTR Stem-Loop Driven Prion Protein mRNA Translation in H4 Neuroglioblastoma Cells. [Related pubchem assays: 1829 (Project Summary), 1814 (Primary HTS)]; assay type: functional; settings: Homo sapiens
[4] = Luminescence Cell-Based Dose Confirmation to Identify Activators of 5'UTR Stem-Loop Driven Alpha-Synuclein mRNA Translation in H4 Neuroglioblastoma Cells. [Related pubchem assays: 1829 (Project Summary), 1814 (Primary HTS)]; assay type: functional
[5] = Luminescence Cell-Based Dose Response HTS to Identify Activators of Luciferase Translation or Activity in H4 […] Cells. [Related pubchem assays: 1829 (Project Summary), 1814 (Primary HTS)]; assay type: functional
[6] = inhibitors of SNCA 5'UTR-driven reporter translation, confirmation, H4 neuroglioma cells, luminescence (AID 1988); assay type: functional, cell-based
[7] = Luminescence Cell-Based Dose Response HTS to Identify Inhibitors of 5'UTR Stem-Loop Driven Prion Protein mRNA Translation in H4 Neuroglioblastoma Cells. [Related pubchem assays: 1827 (Project Summary), 1813 (Primary HTS)]; assay type: functional
[8] = inhibitors of firefly luciferase expression or activity, dose response, H4 neuroglioma cells, luminescence (AID 1990); assay type: functional, cell-based
[9] = target: Luciferin 4-monooxygenase (Photinus pyralis, UniProt P08659); assay: Counter Screen for Luciferase-based Assay Positives. [Related pubchem assays: 620, 618, 411 ]
Luciferin 4-monooxygenase, sequence (P08659 whole entry): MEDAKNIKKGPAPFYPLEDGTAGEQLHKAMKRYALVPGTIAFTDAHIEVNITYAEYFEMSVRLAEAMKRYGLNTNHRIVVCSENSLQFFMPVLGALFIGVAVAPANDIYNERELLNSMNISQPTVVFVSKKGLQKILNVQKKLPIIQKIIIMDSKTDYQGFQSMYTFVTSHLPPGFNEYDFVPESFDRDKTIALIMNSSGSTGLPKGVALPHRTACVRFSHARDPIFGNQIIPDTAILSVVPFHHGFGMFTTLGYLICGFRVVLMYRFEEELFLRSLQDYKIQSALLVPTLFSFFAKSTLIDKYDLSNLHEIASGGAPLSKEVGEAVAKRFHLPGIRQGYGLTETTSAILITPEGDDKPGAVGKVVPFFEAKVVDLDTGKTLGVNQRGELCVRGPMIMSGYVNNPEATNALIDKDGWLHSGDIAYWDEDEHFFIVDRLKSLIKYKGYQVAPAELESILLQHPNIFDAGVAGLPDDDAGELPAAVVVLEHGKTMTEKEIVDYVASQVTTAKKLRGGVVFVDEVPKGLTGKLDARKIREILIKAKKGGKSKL

[10] = target: T1, Microphthalmia-associated transcription factor (Homo sapiens, UniProt O75030); assay: TRPM1 promoter luciferase signal decrease, dose response, MITF inhibitor project, cell-based, SK-MEL-5, cherry-picked, set 3 (AID 493073); assay type: functional
T1 sequence (O75030 whole entry): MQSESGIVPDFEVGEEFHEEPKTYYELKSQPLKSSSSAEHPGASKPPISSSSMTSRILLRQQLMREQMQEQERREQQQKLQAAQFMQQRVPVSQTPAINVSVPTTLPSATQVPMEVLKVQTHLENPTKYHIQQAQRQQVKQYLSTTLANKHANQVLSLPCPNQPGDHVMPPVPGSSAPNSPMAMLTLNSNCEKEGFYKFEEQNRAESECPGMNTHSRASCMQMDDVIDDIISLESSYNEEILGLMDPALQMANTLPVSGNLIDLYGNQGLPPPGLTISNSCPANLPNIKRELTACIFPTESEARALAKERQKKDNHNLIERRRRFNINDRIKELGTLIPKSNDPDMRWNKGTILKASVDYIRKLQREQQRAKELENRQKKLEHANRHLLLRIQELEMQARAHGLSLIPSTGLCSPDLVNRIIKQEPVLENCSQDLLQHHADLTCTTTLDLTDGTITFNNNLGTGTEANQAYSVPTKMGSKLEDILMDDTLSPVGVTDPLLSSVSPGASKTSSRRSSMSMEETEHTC

HT-1080 = assay: cytotoxicity in HT1080 fibrosarcoma cells, cell-based, fluorescence readout (AID 620); assay type: functional; settings: Homo sapiens
[11] = target: Lytic switch protein BZLF1 (Epstein-Barr virus (strain B95-8) (HHV-4) (Human herpesvirus 4), UniProt P03206); assay: EBV ZTA inhibitors, dose response, counter-screen for EBNA-1 inhibitor project, biochemical, fluorescence polarization, Epstein-Barr virus, 1536-well (AID 2377); design: species or system human gammaherpesvirus 4;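 further: fluorescence polarization of Cy5-labelled ZRE DNA probe bound by purified Zta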
Lytic switch protein BZLF1, sequence (P03206 whole entry): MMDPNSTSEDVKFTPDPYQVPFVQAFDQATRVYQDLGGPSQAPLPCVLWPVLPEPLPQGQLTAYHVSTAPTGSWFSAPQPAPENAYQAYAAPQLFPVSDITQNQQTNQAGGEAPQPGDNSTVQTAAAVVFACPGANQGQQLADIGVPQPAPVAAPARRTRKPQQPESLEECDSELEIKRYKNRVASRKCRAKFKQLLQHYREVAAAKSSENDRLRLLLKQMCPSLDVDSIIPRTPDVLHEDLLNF

[12] = target: Epstein-Barr nuclear antigen 1 (Epstein-Barr virus (strain B95-8) (HHV-4) (Human herpesvirus 4), UniProt P03211); assay: EBNA-1 inhibitors, dose response, biochemical, fluorescence polarization, 1536-well (AID 2381); design: species or system human gammaherpesvirus 4;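 further: fluorescence polarization of a Cy5 DNA probe bound by EBNA-1 protein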
Epstein-Barr nuclear antigen 1, sequence (P03211 whole entry): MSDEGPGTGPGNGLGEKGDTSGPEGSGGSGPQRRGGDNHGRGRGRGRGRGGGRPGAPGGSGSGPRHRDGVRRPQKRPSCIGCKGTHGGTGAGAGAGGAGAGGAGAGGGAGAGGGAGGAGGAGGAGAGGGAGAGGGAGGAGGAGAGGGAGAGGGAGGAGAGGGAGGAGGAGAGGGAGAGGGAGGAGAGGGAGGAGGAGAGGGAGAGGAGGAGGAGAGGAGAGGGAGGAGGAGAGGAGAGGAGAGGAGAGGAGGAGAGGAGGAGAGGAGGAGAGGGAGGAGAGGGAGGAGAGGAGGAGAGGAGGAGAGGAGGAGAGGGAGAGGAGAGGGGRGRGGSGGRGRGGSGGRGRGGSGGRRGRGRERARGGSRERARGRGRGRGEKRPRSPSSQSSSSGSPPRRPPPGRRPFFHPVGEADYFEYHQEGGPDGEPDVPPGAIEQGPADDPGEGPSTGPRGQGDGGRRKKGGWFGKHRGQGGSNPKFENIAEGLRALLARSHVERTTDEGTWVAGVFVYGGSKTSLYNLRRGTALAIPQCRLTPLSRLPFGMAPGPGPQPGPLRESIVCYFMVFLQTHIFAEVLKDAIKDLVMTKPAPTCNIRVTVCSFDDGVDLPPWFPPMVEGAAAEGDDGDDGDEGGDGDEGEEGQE

[13] = target: T2, Neuropeptide Y receptor type 2 (Homo sapiens, UniProt P49146); assay type: functional, cell-based;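 further: HEK293 cells expressing the receptor and a CNG channel; stimulus was NPY near EC95 followed by isoproterenol to raise cAMP; antagonist potency measured as restoring cAMP signal that NPY suppresses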
T2 sequence (P49146 whole entry): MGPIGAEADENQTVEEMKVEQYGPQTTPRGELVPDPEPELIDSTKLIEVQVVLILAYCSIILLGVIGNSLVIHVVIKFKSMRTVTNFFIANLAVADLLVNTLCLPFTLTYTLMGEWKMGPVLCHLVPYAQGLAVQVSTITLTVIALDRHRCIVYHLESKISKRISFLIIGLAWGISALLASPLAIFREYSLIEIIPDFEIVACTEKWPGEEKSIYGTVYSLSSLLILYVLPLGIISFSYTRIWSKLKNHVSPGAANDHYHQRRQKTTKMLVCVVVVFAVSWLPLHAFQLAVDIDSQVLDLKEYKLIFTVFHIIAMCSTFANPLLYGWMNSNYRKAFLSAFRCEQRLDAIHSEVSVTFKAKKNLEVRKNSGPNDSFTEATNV

[14] = target: T3, Calpain-2 catalytic subunit (Sus scrofa, UniProt P43367); assay: pig calpain II inhibitor potency, dose response, biochemical, fluorogenic peptide substrate (AID 1420); assay type: functional
T3 sequence (P43367 whole entry): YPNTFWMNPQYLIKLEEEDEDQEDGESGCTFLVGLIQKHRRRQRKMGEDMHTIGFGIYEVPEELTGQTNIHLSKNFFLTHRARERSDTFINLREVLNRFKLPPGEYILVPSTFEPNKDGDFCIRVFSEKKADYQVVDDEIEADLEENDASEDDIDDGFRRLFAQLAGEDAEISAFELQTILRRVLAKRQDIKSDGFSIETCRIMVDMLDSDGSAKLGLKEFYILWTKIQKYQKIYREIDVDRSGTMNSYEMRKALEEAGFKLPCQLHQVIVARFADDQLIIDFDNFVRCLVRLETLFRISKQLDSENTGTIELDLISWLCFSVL

[15] = target: T4, Neuropeptide Y receptor type 1 (Homo sapiens, UniProt P25929); assay type: functional;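 further: HEK293 cells with a CNG channel challenged with NPY then isoproterenol; potency as antagonist that reverses NPY suppression of cAMP signal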
T4 sequence (P25929 whole entry): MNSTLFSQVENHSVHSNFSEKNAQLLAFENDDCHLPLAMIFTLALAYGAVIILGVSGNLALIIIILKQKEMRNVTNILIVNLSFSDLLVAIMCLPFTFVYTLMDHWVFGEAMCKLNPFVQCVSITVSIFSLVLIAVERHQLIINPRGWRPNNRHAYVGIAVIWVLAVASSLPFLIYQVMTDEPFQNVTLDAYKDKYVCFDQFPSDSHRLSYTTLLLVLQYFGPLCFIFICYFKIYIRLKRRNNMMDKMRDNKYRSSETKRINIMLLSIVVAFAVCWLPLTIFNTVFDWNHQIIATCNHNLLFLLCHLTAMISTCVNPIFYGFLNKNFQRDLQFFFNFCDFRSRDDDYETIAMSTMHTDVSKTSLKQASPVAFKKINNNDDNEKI

[16] = inhibitors of intracellular T. cruzi replication, confirmation, NIH3T3 host cells, beta-gal luminescence (AID 2044); assay type: functional, cell-based;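 further: intracellular parasites grown in NIH/3T3 mouse fibroblasts as host cells; luminescent beta-galactosidase reporter signal from transgenic T. cruzi replicating inside host cells; inhibitors lower the luminescence signal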
[17] = cytotoxicity toward NIH3T3 fibroblasts, dose response, counter-screen, cell-based, ATP luminescence, mouse fibroblasts (AID 2010); assay type: functional;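 further: cells exposed to compound for about 90 hours before reading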
NADPH oxidase 1 = target: T5, NADPH oxidase 1 (Homo sapiens, UniProt Q9Y5S8); assay type: functional, cell-based;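 further: Cell-based assay with luminescence read-out, IC50 derived from inhibitor dose-response curves; intracellular ROS from endogenous NOX1 in intact HT29 colon cancer cells; potency of inhibitors that lower the ROS luminescence signal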
T5 sequence (Q9Y5S8 whole entry): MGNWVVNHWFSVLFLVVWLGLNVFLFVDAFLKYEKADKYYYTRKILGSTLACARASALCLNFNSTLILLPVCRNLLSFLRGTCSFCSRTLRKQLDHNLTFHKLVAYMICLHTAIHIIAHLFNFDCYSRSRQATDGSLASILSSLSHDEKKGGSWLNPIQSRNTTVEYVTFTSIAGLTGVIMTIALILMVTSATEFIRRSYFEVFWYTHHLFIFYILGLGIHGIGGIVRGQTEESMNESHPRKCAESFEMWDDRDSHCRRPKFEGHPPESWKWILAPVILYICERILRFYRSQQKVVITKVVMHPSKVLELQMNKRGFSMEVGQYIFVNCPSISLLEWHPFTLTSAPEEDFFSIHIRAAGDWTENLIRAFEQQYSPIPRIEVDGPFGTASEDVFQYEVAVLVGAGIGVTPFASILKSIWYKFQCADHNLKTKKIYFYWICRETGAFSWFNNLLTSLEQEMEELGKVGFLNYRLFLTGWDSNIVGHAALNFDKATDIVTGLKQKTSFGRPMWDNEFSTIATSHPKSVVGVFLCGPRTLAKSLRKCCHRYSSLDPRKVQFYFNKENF

[18] = A Cell Based Secondary Assay To Explore Cytotoxicity of Compounds that Sensitize Mycobacterium Tuberculosis to Beta-Lactam Antibiotics.; assay type: functional
Cytochrome P450 3A4 = Cytochrome P450 3A4 (Homo sapiens, UniProt P08684);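 further: CYP3A4 tested as one member of a cytochrome P450 panel screen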
Cytochrome P450 3A4, sequence (P08684 whole entry): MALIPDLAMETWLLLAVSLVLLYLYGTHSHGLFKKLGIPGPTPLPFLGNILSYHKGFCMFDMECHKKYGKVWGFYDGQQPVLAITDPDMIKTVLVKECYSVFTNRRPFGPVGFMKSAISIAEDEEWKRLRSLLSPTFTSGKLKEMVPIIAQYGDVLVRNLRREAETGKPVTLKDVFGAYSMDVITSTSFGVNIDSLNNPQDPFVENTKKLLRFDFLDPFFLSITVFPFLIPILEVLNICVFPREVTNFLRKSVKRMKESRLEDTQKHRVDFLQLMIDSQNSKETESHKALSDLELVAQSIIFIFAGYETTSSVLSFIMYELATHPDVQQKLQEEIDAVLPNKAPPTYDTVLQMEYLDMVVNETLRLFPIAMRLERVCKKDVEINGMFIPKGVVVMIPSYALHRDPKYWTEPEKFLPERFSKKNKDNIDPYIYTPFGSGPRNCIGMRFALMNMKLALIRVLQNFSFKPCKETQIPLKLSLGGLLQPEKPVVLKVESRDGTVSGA

[19] = cytotoxicity in HEK-293T cells, dose response, cytotoxicity control for BCR NF-kB inhibitor project, luminescence, B-cell screen hits (AID 489021); assay type: functional, cell-based;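 further: HEK-293T cells carrying an NF-kB luciferase reporter; cells exposed to compound for about 14 hours before viability readout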
[20] = HEp-2 cell cytotoxicity, dose response, cytotoxicity control for RSV inhibitor project, HTS (AID 2410); assay type: functional; settings: human respiratory syncytial virus
[21] = Luminescence-based dose response cell-based high throughput screening assay for cytotoxic compounds using the IEC-6 intestinal epithelial cell line. [Related pubchem assays: 1858 (Summary AID.), 1825 (Counterscreen.), 1907 (Confirmation screen.)]; assay type: functional
Cytochrome P450 2C9 = Cytochrome P450 2C9 (Homo sapiens, UniProt P11712)
Cytochrome P450 2C9, sequence (P11712 whole entry): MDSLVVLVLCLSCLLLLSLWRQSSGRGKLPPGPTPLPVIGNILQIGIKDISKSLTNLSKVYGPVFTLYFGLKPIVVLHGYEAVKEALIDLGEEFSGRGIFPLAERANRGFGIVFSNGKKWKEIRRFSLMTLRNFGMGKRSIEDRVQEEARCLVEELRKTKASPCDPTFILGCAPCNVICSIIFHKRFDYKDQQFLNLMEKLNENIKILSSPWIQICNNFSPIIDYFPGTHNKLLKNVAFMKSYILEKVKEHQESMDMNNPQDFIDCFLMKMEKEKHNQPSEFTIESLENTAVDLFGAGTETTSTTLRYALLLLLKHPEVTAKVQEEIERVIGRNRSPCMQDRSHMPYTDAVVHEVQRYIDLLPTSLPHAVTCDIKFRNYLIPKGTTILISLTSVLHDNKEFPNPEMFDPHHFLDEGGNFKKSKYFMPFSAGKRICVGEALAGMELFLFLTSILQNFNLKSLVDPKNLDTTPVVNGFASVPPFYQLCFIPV

For `Cc1ccc(CNC(=O)c2ccc(Cn3cc(-c4ccc(C)cc4)nc3-c3ccncc3)cc2)cc1`, the EC50 [1] was 0.656 µM (active), the EC50 [2] was > 12 µM (not active) and the EC50 [3] was < 0.1 µM (active). For the same molecule, the EC50 (H4) was 1.33 µM (active), the EC50 [4] was 1.12 µM (active) and the EC50 [5] was < 0.1 µM (active).

For `O=C1c2ccccc2S(=O)(=O)N1Cc1nc2ccccc2s1`, the EC50 [6] was 4.21 µM (active), the EC50 [7] was 7.02 µM (active) and the EC50 [8] was 7.48 µM (active). For the same molecule, the EC50 [9] was 7.63 µM (active), the AC50 [10] was 2.7 µM (active) and the EC50 (HT-1080) was > 50 µM (not active).

For `N#Cc1ccccc1OCC(=O)Nc1c(C(=O)C2CC2)oc2ccccc12`, the IC50 [11] was > 111 µM (not active) and the IC50 [12] was 11 µM (not active).

For `O=P(CCCCCCCCCP(=O)(c1ccccc1)c1ccccc1)(c1ccccc1)c1ccccc1`, the IC50 [13] was 1.65 µM (active), the IC50 [14] was 12 µM (not active) and the IC50 [15] was 10.4 µM (not active). The EC50 [16] was 1.29 µM (active) and the EC50 [17] was > 60 µM (not active).

With `Cc1ccc2nc3c(O)n(Cc4ccco4)cnc-3c2c1` the IC50 [11] was > 111 µM (not active) and the IC50 [12] was > 148 µM (not active).

For `COc1ccc2c(c1)Sc1ccc(Cl)cc1N2`, the IC50 (NADPH oxidase 1) was 0.177 µM (active).

For `CC(C)CCSc1nc(N2CCOCC2)c2c(c1C#N)CC(C)(C)OC2`, the EC50 [6] was 31.3 µM (active), the EC50 [7] was > 120 µM (not active) and the EC50 [8] was 16.4 µM (active). For the same molecule, the EC50 [16] was 1.3 µM (active), the EC50 [17] was > 60 µM (not active) and the CC50 [18] was > 40 µM (active).

In the case of `C=C(NNc1c(Cl)c(Cl)nc(C(=O)O)c1Cl)c1ccc(N2CCOCC2)cc1`, the IC50 (NADPH oxidase 1) is reported as > 17 µM (not active).

In the case of `O=C(Nc1cccc(Cn2cccn2)c1)c1cc2c(s1)CCCC2`, the EC50 [1] is reported as 0.853 µM (active), the EC50 [2] is reported as > 12 µM (not active) and the EC50 (H4) is reported as 10.9 µM (active). For the same molecule, the EC50 [4] was 0.651 µM (active) and the EC50 [5] was < 0.1 µM (active).

For `C(=N\Nc1nc(Nc2ccccc2)nc(N2CCOCC2)n1)/c1c[nH]c2ccccc12`, the AC50 (Cytochrome P450 3A4) was 15.8 µM (inconclusive), the EC50 (cells) was 0.018 µM (active) and the EC50 [16] was < 0.1 µM (active). For the same molecule, the IC50 [19] was 28.5 µM (inactive), the CC50 [20] was 28.8 µM (active) and the IC50 [21] was 0.244 µM (active). For the same molecule, the EC50 [17] was 0.536 µM (active) and the AC50 (Cytochrome P450 2C9) was 17.8 µM (inconclusive).
